Counter-ions that a name gives are not always drawn.
Biological target: alpha-2-receptor
Assay: Radioligand binding, alpha-2 adrenoceptor, rat cerebral cortices, [^3 H]-rauwolscine
Settings: for Ki: rat cerebral cortices, [^3 H]-rauwolscine; for alpha-2 - Selectivity Ki alpha-1/Ki alpha 2: ratio of Ki alpha-1 to Ki alpha-2
Procedure: The compounds were assessed for alpha-adrenergic receptor subtype selectivity by use of radioligand binding techniques as described previously (DeBernardis et.al. J. Med. Chem. 28, 1398 (1985)).

Ki [nM]	alpha-2 - Selectivity Ki alpha-1/Ki alpha 2	SMILES
3.7	258	CCN(CCc1cccs1)CC1CCCc2c1ccc1c2OCO1 (stereo not drawn) [Example 164, 1-(N-Ethylamino)methyl-N-(2-(2-thienyl)ethyl))-5,6-methylenedioxy tetralin hydrochloride]
6.6	125	CCN(CCc1cccs1)CC1CCCc2c1ccc1c2OCCO1 (stereo not drawn) [Example 168, 1-((N-Ethylamino)methyl N-(2-(2-thienyl)ethyl))-5,6-ethylenedioxy tetralin hydrochloride]
5.7	127	CN(CCc1ccccc1)CC1CCCc2cc(N)ccc21 (stereo not drawn) [Example 114, 1-((N-Methylaminomethyl-N-(2-phenylethyl))-6-aminotetralindihydrochloride]
6	196	CN(CCc1cccc(N)c1)CC1CCCc2cc(O)ccc21 (stereo not drawn) [Example 68, 1-((N-Methylamino)methyl N-(2-(m-aminophenyl)ethyl))-6-hydroxy tetralin dihydrobromide]
8	119	COc1ccc2c(c1)CCCC2CN(C)CCc1cccc(O)c1 (stereo not drawn) [Example 83, 1-((N-Methylamino)methyl-N-(2-(m-hydroxyphenyl)ethyl))-6-methoxy tetralin hydrochloride]
1.5	173	CN(CCc1cccc(F)c1)CC1CCCc2c1ccc(O)c2O (stereo not drawn) [Example 85, 1-((N-Methylamino)methyl-N-(2-(m-fluorophenyl)ethyl))-5,6-dihydroxy tetralin hydrochloride]
1	95	COc1ccc2c(c1)CCCC2CN1CCC(c2ccccc2)C1 (stereo not drawn) [Example 121, 6-Methoxy-1-(3-phenylpyrrolidino-1-methyl) tetralin hydrochloride]
2	158	CN(CCc1ccccc1)CC1CCCc2ccccc21 (stereo not drawn) [Example 88, 1-(N-Methylamino)methyl-N-(2-phenethyl)) tetralin hydrochloride]
2.5	71	COc1ccc2c(c1)CCC2CN1CCC(c2cccs2)C1 (stereo not drawn) [Example 151, 5-Methoxy1-(3-(2-thienyl)pyrrolidino-1-methyl) indane hydrochloride]

Continued, compound first:

SMILES	Ki [nM]	alpha-2 - Selectivity Ki alpha-1/Ki alpha 2
COc1ccc2c(c1)CCCC2CN(C)CCC1CCCS1 (stereo not drawn) [Example 6h, 1-((N-methylamino)methyl-N-(2-(2-tetrahydrothienyl)ethyl))-6-methoxy tetralin hydrochloride]	3.5	430
CN(CCc1cccs1)CC1CCCc2c1ccc1c2OCO1 (stereo not drawn) [Example 23, 1-((N-Methylamino)methyl-N-(2-(2-thienyl)ethyl))-5,6-methylenedioxy tetralin hydrochloride]	1.7	262
COc1ccc2c(c1)C(CN(C)CCc1cccs1)CCC2 (stereo not drawn) [Example 27, 1-((N-Methylamino)methyl-N-(2-(2-thienyl)ethyl))-7-methoxy tetralin hydrochloride]	2	263
COc1ccc(C)c2c1CCCC2CN(C)CCc1cccs1 (stereo not drawn) [Example 36, 1-(N-Methylamino)methyl-N-(2-(2-thienyl)ethyl))-5-methoxy-8-methyl tetralin hydrochloride]	6.9	95
CCN(CCc1cccc(F)c1)CC1CCCc2cc(OC)ccc21 (stereo not drawn) [Example 42, 1-((N-Ethylamino)methyl-N-(2-(m-fluorophenyl)ethyl))-6-methoxy tetralin hydrochloride]	6.6	159
CN(CCc1cccs1)CC1CCCc2ccccc21 (stereo not drawn) [Example 22, 1-((N-Methylamino)methyl-N-(2-(2-thienyl)ethyl)) tetralin hydrochloride]	1.3	535

Reference: patent US5140040A, “1-aminomethyl-1,2,3,4-tetrahydronaphthalenes” (Abbott Laboratories, priority 1991, dated 1992)
